Data on 28 compounds can be found in patent US20260258050A1, “IMMUNOMODULATOR” (HITGEN INC., priority 2023, published 2026).

The target in assay [1] is T1, Human IL-17AF (Homo sapiens, UniProt Q16552+Q96PD4).
T1 construct: purchased Sino Biological Inc. CT047-H08H
T1 sequence (Q16552 24-155): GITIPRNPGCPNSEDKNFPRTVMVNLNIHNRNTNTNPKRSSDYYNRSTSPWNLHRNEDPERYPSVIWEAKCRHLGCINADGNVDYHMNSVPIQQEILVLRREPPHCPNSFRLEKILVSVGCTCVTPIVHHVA
T1 sequence (Q96PD4 31-163): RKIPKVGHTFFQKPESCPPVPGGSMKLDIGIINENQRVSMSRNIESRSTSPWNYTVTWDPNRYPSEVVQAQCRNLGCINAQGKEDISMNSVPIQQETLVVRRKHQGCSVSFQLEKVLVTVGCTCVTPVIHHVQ
In words: IL-17AF ELISA (competitive ELISA, IL-17AF/IL-17Ra receptor-ligand binding). To be noted: human IL-17AF coated plate, human IL-17Ra, read-out: IC50, inhibitory activity of compounds on human IL-17AF. Here is the method: Experiment Example 2 IL-17AF ELISA
The inhibitory effects of human IL-17AF inhibitors on receptor-ligand binding were quantitatively determined by a competitive ELISA.
The ELISA was performed through the following steps.
Human IL-17AF (Sino Biological Inc., Cat #CT047-H08H) was diluted with coating buffer (50 mM PBS, pH 7.4) to reach a concentration of 0.625 μg/ml. 100 μL of the resulting solution was added to each well of a 96-well plate, and the plate was incubated at 37° C. for 30 min. In the blank group, 100 μL of coating buffer was added instead of the IL-17AF solution.
The plate was washed four times with 10 mM PBST (pH 7.4). 200 μL was used per well for each wash. After the final wash, the plate was tapped dry on absorbent paper.
Fresh 5% (w/v) skim milk solution was prepared before the experiment. For example, 5 grams of skim milk powder (Bio-Rad, Cat #170-6404) was completely dissolved in 100 mL of 10 mM PBST. 200 μL of the 5% (w/v) skim milk solution was added to each well, and the plate was incubated on a shaker at 25° C. for 30 min.
(S4) Preparation of 100× to-be-Tested Compound Solutions
During step (S3), the to-be-tested compound solutions were prepared. Each powdered compound was dissolved in dimethyl sulfoxide (DMSO) to reach a stock concentration of 10 mM. The to-be-tested compound solutions were then serially diluted four-fold with DMSO to obtain nine concentrations ranging from […].
(S6) Pre-Incubation of IL-17AF with to-be-Tested Compound Solutions
89 μL of PBST and 1 μL of each of the to-be-tested compound solutions were added to each well and mixed. The plate was pre-incubated at 25° C. for 10 min. In the blank group and the control group, 1 μL of DMSO was added instead of the to-be-tested compound solutions.
(S7) Incubation with Human IL-17Ra
10 μL of 100 nM IL-17Ra (Sino Biological Inc., Cat #10895-H03H) was added to each well, followed by incubation on a shaker at 25° C. for 30 min. The receptor solution was prepared in 10 mM PBST.
(S9) Incubation with Horseradish Peroxidase-Conjugated Antibody
100 μL of mouse anti-Fc tag HRP-conjugated antibody (Sino Biological Inc., Cat #10702-MM01T-H) was added to each well. The plate was incubated on a shaker at 25° C. for 30 min. The antibody was diluted with 5% (w/v) skim milk solution at 1:5,000 (v/v).
100 μL of TMB substrate solution (BD, Cat #555214) was added to each well. Substrate A and substrate B were freshly mixed at a volume ratio of 1:1 before use. The plate was incubated in the dark at 25° C. for 5-15 min.
(S12) Termination and Detection
The color reaction was terminated by addition of 2.5 M HCl. Absorbance was measured at 450 nm using a BMG PHERStar microplate reader.
(S13) Calculation of Half-Maximal Inhibitory Concentration (IC50)
The relative percent residual activity at each compound concentration was calculated according to Equation 1. The IC50 value of each test compound was then calculated in GraphPad 6 using the equation for log(inhibitor) versus normalized response with variable slope, as shown in Equation 2.
relative percent residual activity (%)=[(absorbance of sample−absorbance of blank group)/(absorbance of control group−absorbance of blank group)]%. Equation 1: […]
The compounds prepared in the Examples were tested for IL-17AF inhibitory activity according to the above method.
(In general: ELISA stands for enzyme-linked immunosorbent assay.)

The target in assay [2] is T2, Human IL-17A (Homo sapiens, UniProt Q16552).
T2 sequence (Q16552 20-155 limits assumed): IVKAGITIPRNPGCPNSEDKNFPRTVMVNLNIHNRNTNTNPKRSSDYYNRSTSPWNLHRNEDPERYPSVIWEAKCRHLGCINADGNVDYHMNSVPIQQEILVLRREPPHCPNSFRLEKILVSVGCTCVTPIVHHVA
In words: Inhibition of human IL-17A protein-induced GROα/CXCL1 production in HT-29 cells. The class given is cell-based. Further details: purchased R&D 317-ILB; host or cells: added exogenously to HT-29 cells. To be noted: 30 ng/mL human IL-17A protein, 48 h, GROα in supernatant by ELISA kit, read-out: Inhibitory IC50 of compounds on HT-29 cell GROα/CXCL1. Put shortly: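 Compound dilutions were preincubated 1 h at 37 °C with 30 ng/mL human IL-17A, then added to HT-29 cells (5×10^4/well) for 48 h at 37 °C. GROα in supernatant quantified by ELISA; IC50 for inhibition of its production. Positive control: IL-17A antibody at […].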

As for `Cc1[nH]nc2c1-c1cc(F)c(NC(=O)[C@@H](NC(=O)c3ccnn3C(C)C)C(C3CC3)C3CC3)cc1CN(C1CCOCC1)CC2` [compound 174], the IC50 is 100 to 500 nM in assay [1] and at most 100 nM in assay [2].

As to `Cc1[nH]nc2c1-c1cc(F)c(NC(=O)[C@@H](NC(=O)c3ccnn3C(C)C)C(C3CC3)C3CC3)cc1CN(C1CC(F)(F)C1)C(=O)C2` [compound 169], the IC50 in assay [1] and in assay [2] was at most 100 nM throughout.

For `Cc1[nH]nc2c1-c1cc(F)c(NC(=O)[C@@H](NC(=O)c3ccnn3CC3(C#N)CC3)C(C3CC3)C3CC3)cc1COCC2` [compound 114], the IC50 in assay [1] is at most 100 nM; in assay [2], 100 to 500 nM.

With `Cc1[nH]nc2c1-c1cc(F)c(NC(=O)[C@@H](NC(=O)c3cnnn3CCOC(F)F)C(C3CC3)C3CC3)cc1COCC2` [compound 108], the IC50 in assay [1] and in assay [2] was 100 to 500 nM in each case.

In the case of `Cc1[nH]nc2c1-c1cc(F)c(NC(=O)[C@@H](NC(=O)c3ccnn3C(C)CF)C(C3CC3)C3CC3)cc1COCC2` (single isomer, unassigned) [compound 42b], the IC50 in assay [1] is at most 100 nM; in assay [2], 100 to 500 nM.

`Cc1[nH]nc2c1-c1cc(F)c(NC(=O)[C@@H](NC(=O)c3ccnn3C(C)C)C(C3CC3)C3CC3)cc1CN(C(C)C(F)(F)F)C(=O)C2` (single isomer, unassigned) [compound 186a]: the IC50 was 100 to 500 nM in assay [1] and at most 100 nM in assay [2].

In the case of `Cc1[nH]nc2c1-c1cnc(NC(=O)[C@@H](NC(=O)c3ccnn3C(C)C)C(C3CC3)C3CC3)cc1CN(CC(C)(F)F)CC2` [compound 199], the IC50 in assay [1] and in assay [2] was at most 100 nM in each case.

Consider `CCn1nccc1C(=O)N[C@H](C(=O)Nc1cc2c(cc1F)-c1c(n[nH]c1C)CCOC2)C(C1CC1)C1CC1` [compound 16], for which the IC50 in assay [1] and in assay [2] was 100 to 500 nM throughout.

With `Cc1[nH]nc2c1-c1cc(F)c(NC(=O)[C@@H](NC(=O)c3ccnn3CCOC(C)C)C(C3CC3)C3CC3)cc1COCC2` [compound 98], the IC50 in assay [1] and in assay [2] was 100 to 500 nM throughout.

For `Cc1[nH]nc2c1-c1cnc(NC(=O)[C@@H](NC(=O)c3ccnn3C(C)C)C(C3CC3)C3CC3)cc1CN(C1CC(F)(F)C1)C(=O)C2` [compound 194], the IC50 in assay [1] is 100 to 500 nM; in assay [2] it was at most 100 nM.

`[2H]C([2H])([2H])C([2H])([2H])n1nccc1C(=O)N[C@H](C(=O)Nc1cc2c(cc1F)-c1c(n[nH]c1C)CCOC2)C(C1CC1)C1CC1` [compound 90]: the IC50 in assay [1] and in assay [2] was 100 to 500 nM in each case.

With `Cc1[nH]nc2c1-c1cnc(NC(=O)[C@@H](NC(=O)c3conc3C(C)C)C(C3CC3)C3CC3)cc1CN(C1CC1)CC2` [compound 214], the IC50 in assay [1] and in assay [2] was at most 100 nM in each case.

For `Cc1[nH]nc2c1-c1cnc(NC(=O)[C@@H](NC(=O)/C(F)=C\C3CC3)C(C3CC3)C3CC3)cc1COCC2` [compound 239], the IC50 was 100 to 500 nM in assay [1] and at most 100 nM in assay [2].

In the case of `Cc1[nH]nc2c1-c1cnc(NC(=O)[C@@H](NC(=O)c3ccnn3C(C)C)C(C3CC3)C3CC3)cc1CN(CC(F)F)C(=O)C2` [compound 192], the IC50 in assay [1] and in assay [2] was at most 100 nM throughout.

`Cc1[nH]nc2c1-c1cc(F)c(NC(=O)[C@@H](NC(=O)c3ccnn3CCC(O)C(F)(F)F)C(C3CC3)C3CC3)cc1COCC2` (some centres unmarked) [compound 81]: the IC50 in assay [1] was at most 100 nM; in assay [2], 100 to 500 nM.

Take `Cc1[nH]nc2c1-c1cc(F)c(NC(=O)[C@@H](NC(=O)c3ccnn3C(C)C)C(C3CC3)C3CC3)cc1CN(CC1CC1)CC2` [compound 166]: the IC50 in assay [1] and in assay [2] was 100 to 500 nM each time.

On to `Cc1[nH]nc2c1-c1cc(F)c(NC(=O)[C@@H](NC(=O)c3ccnn3C(C)C)C(C3CC3)C3CC3)cc1CN(C1CCOCC1)C(=O)C2` [compound 167], for which the IC50 in assay [1] was 100 to 500 nM; in assay [2], at most 100 nM.

On to `Cc1[nH]nc2c1-c1cc(F)c(NC(=O)[C@@H](NC(=O)c3ccnn3CCCF)C(C3CC3)C3CC3)cc1CN(C1CC1)CC2` [compound 218], for which the IC50 in assay [1] and in assay [2] was at most 100 nM throughout.

As for `Cc1[nH]nc2c1-c1cc(F)c(NC(=O)[C@@H](NC(=O)c3ccnn3C(C)C3CC3)C(C3CC3)C3CC3)cc1COCC2` (single isomer, unassigned) [compound 41a], the IC50 is 100 to 500 nM in assay [1] and at most 100 nM in assay [2].

Consider `Cc1[nH]nc2c1-c1cnc(NC(=O)[C@@H](NC(=O)c3ccnn3C3CC3)C(C3CC3)C3CC3)cc1COCC2` [compound 237], for which the IC50 in assay [1] and in assay [2] was 100 to 500 nM throughout.

On to `Cc1[nH]nc2c1-c1cnc(NC(=O)[C@@H](NC(=O)c3ccnn3C(C)C)C(C3CC3)C3CC3)cc1CN(CC(F)F)CC2` [compound 202], for which the IC50 in assay [1] was 100 to 500 nM; in assay [2] it was at most 100 nM.

Regarding `Cc1[nH]nc2c1-c1cnc(NC(=O)[C@@H](NC(=O)c3ccnn3C(C)C)C(C3CC3)C3CC3)cc1CN(C(C)C)CC2` [compound 200], the IC50 in assay [1] and in assay [2] was 100 to 500 nM throughout.

Take `Cc1[nH]nc2c1-c1cc(F)c(NC(=O)[C@@H](NC(=O)c3ccnn3CCOCC(F)(F)F)C(C3CC3)C3CC3)cc1COCC2` [compound 104]: the IC50 was 100 to 500 nM in assay [1] and at most 100 nM in assay [2].

For `Cc1[nH]nc2c1-c1cc(F)c(NC(=O)[C@@H](NC(=O)c3ccnn3CC3CCC3)C(C3CC3)C3CC3)cc1COCC2` [compound 60], the IC50 in assay [1] is at most 100 nM; in assay [2] it was 100 to 500 nM.

For `Cc1[nH]nc2c1-c1cc(F)c(NC(=O)[C@@H](NC(=O)c3ccnn3C(C)C)C(C3CC3)C3CC3)cc1CN(C(C)C(F)(F)F)C(=O)C2` (mixture of isomers) [compound 173], the IC50 in assay [1] is 100 to 500 nM; in assay [2] it was at most 100 nM.

On to `Cc1[nH]nc2c1-c1cc(F)c(NC(=O)[C@@H](NC(=O)/C(F)=C\C(C)C)C(C3CC3)C3CC3)cc1COCC2` [compound 229], for which the IC50 was 100 to 500 nM in assay [1] and at most 100 nM in assay [2].

Consider `Cc1[nH]nc2c1-c1cnc(NC(=O)[C@@H](NC(=O)c3ccnn3C(C)C3CC3)C(C3CC3)C3CC3)cc1COCC2` (single isomer, unassigned) [compound 188b], for which the IC50 in assay [1] was 100 to 500 nM; in assay [2], at most 100 nM.

Regarding `[2H]C([2H])(C1CC1)n1nccc1C(=O)N[C@H](C(=O)Nc1cc2c(cc1F)-c1c(n[nH]c1C)CCOC2)C(C1CC1)C1CC1` [compound 76], the IC50 in assay [1] was at most 100 nM; in assay [2], 100 to 500 nM.
